Laboratory results taken from patent publication US12139492B2 (Endotarget Inc., priority 2021, dated 2024).

Assays:
Mino cells = experiment: Antiproliferative effect, MTS cell viability assay, Mino cells; format: cell-based; settings: Homo sapiens, MINO, Mino mantle cell lymphoma cells; read-out: IC50 (anti-proliferation) Mino cells
Procedure, shortened: (§1)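 Absorbance at 490 nm of formazan, formed by metabolically active cells from MTS tetrazolium, served as the viability measure after a 72 h treatment across a 0.001–10 μM concentration series plus untreated control.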

JeKo-1 cells = experiment: Antiproliferative effect, MTS cell viability assay, JeKo-1 cells; format: cell-based; settings: Homo sapiens; JeKo-1 mantle cell lymphoma cells; read-out: IC50 (anti-proliferation) JeKO-1 cells
Procedure, shortened: as §1

BTK = BTK (Homo sapiens, UniProt Q06187); experiment: Degradation of BTK protein in Namalwa cells (Western blot; DC50, Dmax); settings: for DC50: BTK degradation, cell line not given
Chain of BTK (Q06187 whole entry): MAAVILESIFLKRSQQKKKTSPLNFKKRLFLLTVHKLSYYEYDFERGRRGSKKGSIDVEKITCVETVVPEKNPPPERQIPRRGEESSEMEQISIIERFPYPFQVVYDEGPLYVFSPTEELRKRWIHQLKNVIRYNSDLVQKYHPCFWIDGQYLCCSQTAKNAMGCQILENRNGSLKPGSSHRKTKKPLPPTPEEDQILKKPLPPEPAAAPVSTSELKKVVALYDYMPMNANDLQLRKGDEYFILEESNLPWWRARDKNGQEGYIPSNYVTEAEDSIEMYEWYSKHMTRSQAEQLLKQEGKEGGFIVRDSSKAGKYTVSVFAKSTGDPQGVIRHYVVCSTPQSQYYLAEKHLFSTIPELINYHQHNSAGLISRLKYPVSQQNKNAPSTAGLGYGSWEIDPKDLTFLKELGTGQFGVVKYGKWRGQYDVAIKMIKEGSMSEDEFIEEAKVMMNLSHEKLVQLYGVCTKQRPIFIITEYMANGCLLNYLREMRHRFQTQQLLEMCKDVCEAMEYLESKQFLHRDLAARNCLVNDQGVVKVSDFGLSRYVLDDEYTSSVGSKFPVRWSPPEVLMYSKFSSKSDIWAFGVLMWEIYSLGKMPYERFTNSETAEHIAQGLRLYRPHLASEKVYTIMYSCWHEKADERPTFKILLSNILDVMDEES

Row | Dmax (BTK) [%] | DC50 (BTK) [nM] | Structure (SMILES) | IC50 (Mino cells) [nM] | IC50 (JeKo-1 cells) [nM]
1 | > 90 | 10 to 50 | NC(=O)c1c(-c2ccc(Oc3ccccc3)cc2)nn2c1NCC[C@H]2C1CCN(C(=O)N2CCC(CN3CCN(c4ccc5c(c4)C(=O)N(C4CCC(=O)NC4=O)C5=O)CC3)CC2)CC1 (stereo partly drawn) [Compound 291, (7S)-7-(1-(4-((4-(2-(2,6-dioxopiperidin-3-yl)-1,3-dioxoisoindolin-5-yl)piperazin-1-yl)methyl)piperidine-1-carbonyl)piperidin-4-yl)-2-(4-phenoxyphenyl)-4,5,6,7-tetrahydropyrazolo[1,5-a]pyrimidine-3-carboxamide] | < 1000 | < 1000
2 | > 90 | < 10 | NC(=O)c1c(-c2ccc(Oc3ccccc3)cc2)nn2c1NCC[C@H]2C1CCN(C(=O)N2CCC(CN3CCN(c4ccc5c(c4)CN(C4CCC(=O)NC4=O)C5=O)CC3)CC2)CC1 (stereo partly drawn) [Compound 292, (7S)-7-(1-(4-((4-(2-(2,6-dioxopiperidin-3-yl)-1-oxoisoindolin-5-yl)piperazin-1-yl)methyl)piperidine-1-carbonyl)piperidin-4-yl)-2-(4-phenoxyphenyl)-4,5,6,7-tetrahydropyrazolo[1,5-a]pyrimidine-3-carboxamide] | < 1000 | < 1000
3 | > 90 | 10 to 50 | NC(=O)c1c(-c2ccc(Oc3ccccc3)cc2)nn2c1NCC[C@H]2C1CCN(C(=O)N2CCC(CC3CCN(c4ccc5c(c4)C(=O)N(C4CCC(=O)NC4=O)C5=O)CC3)CC2)CC1 (stereo partly drawn) [Compound 293, (7S)-7-(1-(4-((1-(2-(2,6-dioxopiperidin-3-yl)-1,3-dioxoisoindolin-5-yl)piperidin-4-yl)methyl)piperidine-1-carbonyl)piperidin-4-yl)-2-(4-phenoxyphenyl)-4,5,6,7-tetrahydropyrazolo[1,5-a]pyrimidine-3-carboxamide] | < 1000 | 1000 to 10000
4 | > 90 | 10 to 50 | NC(=O)c1c(-c2ccc(Oc3ccccc3)cc2)nn2c1NCC[C@H]2C1CCN(C(=O)N2CCC(CC3CCN(c4ccc5c(c4)CN(C4CCC(=O)NC4=O)C5=O)CC3)CC2)CC1 (stereo partly drawn) [Compound 294, (7S)-7-(1-(4-((1-(2-(2,6-dioxopiperidin-3-yl)-1-oxoisoindolin-5-yl)piperidin-4-yl)methyl)piperidine-1-carbonyl)piperidin-4-yl)-2-(4-phenoxyphenyl)-4,5,6,7-tetrahydropyrazolo[1,5-a]pyrimidine-3-carboxamide] | < 1000 | 1000 to 10000
5 | > 90 | 10 to 50 | NC(=O)c1c(-c2ccc(Oc3ccccc3)cc2)nn2c1NCC[C@H]2C1CCN(C(=O)N2CCC(CN3CCC(c4ccc5c(c4)C(=O)N(C4CCC(=O)NC4=O)C5=O)CC3)CC2)CC1 (stereo partly drawn) [Compound 295, (7S)-7-(1-(4-((4-(2-(2,6-dioxopiperidin-3-yl)-1,3-dioxoisoindolin-5-yl)piperidin-1-yl)methyl)piperidine-1-carbonyl)piperidin-4-yl)-2-(4-phenoxyphenyl)-4,5,6,7-tetrahydropyrazolo[1,5-a]pyrimidine-3-carboxamide] | < 1000 | 1000 to 10000
6 | > 90 | < 10 | NC(=O)c1c(-c2ccc(Oc3ccccc3)cc2)nn2c1NCC[C@H]2C1CCN(C(=O)N2CCC(CN3CCC(c4ccc5c(c4)CN(C4CCC(=O)NC4=O)C5=O)CC3)CC2)CC1 (stereo partly drawn) [Compound 296, (7S)-7-(1-(4-((4-(2-(2,6-dioxopiperidin-3-yl)-1-oxoisoindolin-5-yl)piperidin-1-yl)methyl)piperidine-1-carbonyl)piperidin-4-yl)-2-(4-phenoxyphenyl)-4,5,6,7-tetrahydropyrazolo[1,5-a]pyrimidine-3-carboxamide] | < 1000 | 1000 to 10000
7 | > 90 | 10 to 50 | NC(=O)c1c(-c2ccc(Oc3ccccc3)cc2)nn2c1NCC[C@H]2C1CCN(C(=O)N2CCN(CCN3CCN(c4ccc5c(c4)C(=O)N(C4CCC(=O)NC4=O)C5=O)CC3)CC2)CC1 (stereo partly drawn) [Compound 297, (7S)-7-(1-(4-(2-(4-(2-(2,6-dioxopiperidin-3-yl)-1,3-dioxoisoindolin-5-yl)piperazin-1-yl)ethyl)piperazine-1-carbonyl)piperidin-4-yl)-2-(4-phenoxyphenyl)-4,5,6,7-tetrahydropyrazolo[1,5-a]pyrimidine-3-carboxamide] | 1000 to 10000 | 1000 to 10000
8 | > 90 | 10 to 50 | NC(=O)c1c(-c2ccc(Oc3ccccc3)cc2)nn2c1NCC[C@H]2C1CCN(C(=O)N2CCN(CCN3CCN(c4ccc5c(c4)CN(C4CCC(=O)NC4=O)C5=O)CC3)CC2)CC1 (stereo partly drawn) [Compound 298, (7S)-7-(1-(4-(2-(4-(2-(2,6-dioxopiperidin-3-yl)-1-oxoisoindolin-5-yl)piperazin-1-yl)ethyl)piperazine-1-carbonyl)piperidin-4-yl)-2-(4-phenoxyphenyl)-4,5,6,7-tetrahydropyrazolo[1,5-a]pyrimidine-3-carboxamide] | 1000 to 10000 | 1000 to 10000
9 | > 75 | 10 to 50 | NC(=O)c1c(-c2ccc(Oc3ccccc3)cc2)nn2c1NCC[C@H]2C1CCN(C(=O)N2CCN(CCC3CCN(c4ccc5c(c4)C(=O)N(C4CCC(=O)NC4=O)C5=O)CC3)CC2)CC1 (stereo partly drawn) [Compound 299, (7S)-7-(1-(4-(2-(1-(2-(2,6-dioxopiperidin-3-yl)-1,3-dioxoisoindolin-5-yl)piperidin-4-yl)ethyl)piperazine-1-carbonyl)piperidin-4-yl)-2-(4-phenoxyphenyl)-4,5,6,7-tetrahydropyrazolo[1,5-a]pyrimidine-3-carboxamide] | 1000 to 10000 | 1000 to 10000
10 | > 75 | 10 to 50 | NC(=O)c1c(-c2ccc(Oc3ccccc3)cc2)nn2c1NCC[C@H]2C1CCN(C(=O)N2CCN(CCC3CCN(c4ccc5c(c4)CN(C4CCC(=O)NC4=O)C5=O)CC3)CC2)CC1 (stereo partly drawn) [Compound 300, (7S)-7-(1-(4-(2-(1-(2-(2,6-dioxopiperidin-3-yl)-1-oxoisoindolin-5-yl)piperidin-4-yl)ethyl)piperazine-1-carbonyl)piperidin-4-yl)-2-(4-phenoxyphenyl)-4,5,6,7-tetrahydropyrazolo[1,5-a]pyrimidine-3-carboxamide] | 1000 to 10000 | 1000 to 10000
11 | > 75 | 10 to 50 | NC(=O)c1c(-c2ccc(Oc3ccccc3)cc2)nn2c1NCC[C@H]2C1CCN(C(=O)N2CCC(CCN3CCC(c4ccc5c(c4)C(=O)N(C4CCC(=O)NC4=O)C5=O)CC3)CC2)CC1 (stereo partly drawn) [Compound 301, (7S)-7-(1-(4-(2-(4-(2-(2,6-dioxopiperidin-3-yl)-1,3-dioxoisoindolin-5-yl)piperidin-1-yl)ethyl)piperidine-1-carbonyl)piperidin-4-yl)-2-(4-phenoxyphenyl)-4,5,6,7-tetrahydropyrazolo[1,5-a]pyrimidine-3-carboxamide] | 1000 to 10000 | 1000 to 10000
12 | > 75 | 10 to 50 | NC(=O)c1c(-c2ccc(Oc3ccccc3)cc2)nn2c1NCC[C@H]2C1CCN(C(=O)N2CCC(CCN3CCC(c4ccc5c(c4)CN(C4CCC(=O)NC4=O)C5=O)CC3)CC2)CC1 (stereo partly drawn) [Compound 302, (7S)-7-(1-(4-(2-(4-(2-(2,6-dioxopiperidin-3-yl)-1-oxoisoindolin-5-yl)piperidin-1-yl)ethyl)piperidine-1-carbonyl)piperidin-4-yl)-2-(4-phenoxyphenyl)-4,5,6,7-tetrahydropyrazolo[1,5-a]pyrimidine-3-carboxamide] | 1000 to 10000 | 1000 to 10000
13 | > 75 | 10 to 50 | NC(=O)c1c(-c2ccc(Oc3ccccc3)cc2)nn2c1NCC[C@H]2C1CCN(C(=O)N2CCN(CCN3CCC(c4ccc5c(c4)C(=O)N(C4CCC(=O)NC4=O)C5=O)CC3)CC2)CC1 (stereo partly drawn) [Compound 303, (7S)-7-(1-(4-(2-(4-(2-(2,6-dioxopiperidin-3-yl)-1,3-dioxoisoindolin-5-yl)piperidin-1-yl)ethyl)piperazine-1-carbonyl)piperidin-4-yl)-2-(4-phenoxyphenyl)-4,5,6,7-tetrahydropyrazolo[1,5-a]pyrimidine-3-carboxamide] | 1000 to 10000 | 1000 to 10000
14 | > 75 | 10 to 50 | NC(=O)c1c(-c2ccc(Oc3ccccc3)cc2)nn2c1NCC[C@H]2C1CCN(C(=O)N2CCN(CCN3CCC(c4ccc5c(c4)CN(C4CCC(=O)NC4=O)C5=O)CC3)CC2)CC1 (stereo partly drawn) [Compound 304, (7S)-7-(1-(4-(2-(4-(2-(2,6-dioxopiperidin-3-yl)-1-oxoisoindolin-5-yl)piperidin-1-yl)ethyl)piperazine-1-carbonyl)piperidin-4-yl)-2-(4-phenoxyphenyl)-4,5,6,7-tetrahydropyrazolo[1,5-a]pyrimidine-3-carboxamide] | 1000 to 10000 | 1000 to 10000
15 | > 90 | 10 to 50 | NC(=O)c1c(-c2ccc(Oc3ccccc3)cc2)nn2c1NCCC2C1CCN(C2CCN(CC3CCN(c4ccc5c(c4)C(=O)N(C4CCC(=O)NC4=O)C5=O)CC3)CC2)CC1 (stereo not shown) [Compound 305, 7-(1′-((1-(2-(2,6-dioxopiperidin-3-yl)-1,3-dioxoisoindolin-5-yl)piperidin-4-yl)methyl)-[1,4′-bipiperidin]-4-yl)-2-(4-phenoxyphenyl)-4,5,6,7-tetrahydropyrazolo[1,5-a]pyrimidine-3-carboxamide] | 1000 to 10000 | 1000 to 10000
16 | > 90 | 10 to 50 | NC(=O)c1c(-c2ccc(Oc3ccccc3)cc2)nn2c1NCCC2C1CCN(C2CCN(CC3CCN(c4ccc5c(c4)CN(C4CCC(=O)NC4=O)C5=O)CC3)CC2)CC1 (stereo not shown) [Compound 306, 7-(1′-((1-(2-(2,6-dioxopiperidin-3-yl)-1-oxoisoindolin-5-yl)piperidin-4-yl)methyl)-[1,4′-bipiperidin]-4-yl)-2-(4-phenoxyphenyl)-4,5,6,7-tetrahydropyrazolo[1,5-a]pyrimidine-3-carboxamide] | 1000 to 10000 | 1000 to 10000
